Data: US7563787B2, “Substituted pyrazole compounds” (Miikana Therapeutics, Inc., priority 2005, dated 2009)

Experiments:
Format in all cases: biochemical
Aurora B kinase = target: T1, Aurora B kinase (Homo sapiens, UniProt Q96GD4); test: Aurora B (Aurora 1) Inhibition Assay; conditions: 100 μM compound; ATP 50 μM; 16 h
T1 construct: purchased BPS Biosciences, San Diego, Calif
Method: Assays for Aurora B kinase inhibition were carried out similarly to those for Aurora A kinase (see above) with the following modifications. Aurora B kinase (BPS Biosciences, San Diego, Calif.) was used as the enzyme, at a concentration was 2.5 μg/mL. The ATP concentration was 50 μM, and the kinase reaction was allowed to proceed for 16 h. Sodium orthovanadate (20 μM) was added to the buffer to inhibit contaminating phosphatases.

ABL2 (Arg) = target: T2, ABL2 (Arg) (Homo sapiens, UniProt P42684); test: Kinase Selectivity Assay; conditions: read-out: Percent Inhibition at 1 μM; further: ATP at apparent Km or 100 µM
T2 construct: purchased Invitrogen, Carlsbad, Calif
Method: (§1) Compounds were assayed for inhibitory activity against a panel of different kinase enzymes at a concentration of 1 μM. Where appropriate, full-length enzymes or catalytically active fragments, with N-terminal or C-terminal His- or GST-tags, were used (Invitrogen, Carlsbad, Calif.). Test compounds were initially diluted to 100× test concentration in 100% DMSO. This 100× concentration was then diluted to a 4× working concentration in Kinase Buffer (50 mM HEPES pH 7.5, 0.01% Brij-35, 10 mM MgCl2, 1 mM EGTA) and 2.5 μL was then added to a low volume NBS, 384-well plate (Corning, Corning, N.Y.). Five μL of a 2× peptide/kinase mixture (Invitrogen, Carlsbad, Calif.), as appropriate (listed in Table 3), was then added and the reaction was then initiated by addition of 2.5 μL of a 4× working concentration of ATP in Kinase Buffer.

AKT1 (PKB alpha) = target: T3, AKT1 (PKB alpha) (Homo sapiens, UniProt P31749); test: Kinase Selectivity Assay; conditions: read-out: Percent Inhibition at 1 μM; further: ATP at apparent Km or 100 µM
T3 construct: purchased Invitrogen, Carlsbad, Calif
Method: as §1

BLK = target: T4, BLK (Homo sapiens, UniProt P51451); test: Kinase Selectivity Assay; conditions: read-out: Percent Inhibition at 1 μM; further: ATP at apparent Km or 100 µM
T4 construct: purchased Invitrogen, Carlsbad, Calif
Method: as §1

BMX = target: T5, BMX (Homo sapiens, UniProt P51813); test: Kinase Selectivity Assay; conditions: read-out: Percent Inhibition at 1 μM; further: ATP at apparent Km or 100 µM
T5 construct: purchased Invitrogen, Carlsbad, Calif
T5 sequence (P51813 whole entry): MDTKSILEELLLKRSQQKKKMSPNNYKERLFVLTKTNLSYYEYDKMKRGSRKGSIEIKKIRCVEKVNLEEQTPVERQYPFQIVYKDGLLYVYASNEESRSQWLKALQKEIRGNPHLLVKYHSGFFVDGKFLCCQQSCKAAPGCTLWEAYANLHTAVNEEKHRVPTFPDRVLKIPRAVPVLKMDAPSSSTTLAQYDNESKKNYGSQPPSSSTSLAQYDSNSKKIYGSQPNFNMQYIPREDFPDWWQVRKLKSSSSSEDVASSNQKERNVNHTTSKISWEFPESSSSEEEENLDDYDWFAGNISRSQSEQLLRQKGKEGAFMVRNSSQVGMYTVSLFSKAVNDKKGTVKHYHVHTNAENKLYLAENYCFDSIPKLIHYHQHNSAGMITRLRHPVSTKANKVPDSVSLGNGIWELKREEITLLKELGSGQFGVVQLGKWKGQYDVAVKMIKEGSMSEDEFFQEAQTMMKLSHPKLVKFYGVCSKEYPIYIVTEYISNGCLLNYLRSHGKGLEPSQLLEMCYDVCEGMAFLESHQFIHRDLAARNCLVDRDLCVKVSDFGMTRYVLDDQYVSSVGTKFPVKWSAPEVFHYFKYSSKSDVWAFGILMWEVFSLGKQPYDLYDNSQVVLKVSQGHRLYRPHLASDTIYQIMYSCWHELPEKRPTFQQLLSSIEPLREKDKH
Method: as §1

BTK = target: T6, BTK (Homo sapiens, UniProt Q06187); test: Kinase Selectivity Assay; conditions: read-out: Percent Inhibition at 1 μM; further: ATP at apparent Km or 100 µM
T6 construct: purchased Invitrogen, Carlsbad, Calif
Method: as §1

CDK2/cyclin A = target: T7, CDK2/cyclin A (Homo sapiens, UniProt P24941); test: Kinase Selectivity Assay; conditions: read-out: Percent Inhibition at 1 μM; further: ATP at apparent Km or 100 µM
T7 construct: purchased Invitrogen, Carlsbad, Calif
Method: as §1

CSF1R (FMS) = target: T8, CSF1R (FMS) (Homo sapiens, UniProt P07333); test: Kinase Selectivity Assay; conditions: read-out: Percent Inhibition at 1 μM; further: ATP at apparent Km or 100 µM
T8 construct: purchased Invitrogen, Carlsbad, Calif
Method: as §1

EPHA1 = target: T9, EPHA1 (Homo sapiens, UniProt P21709); test: Kinase Selectivity Assay; conditions: read-out: Percent Inhibition at 1 μM; further: ATP at apparent Km or 100 µM
T9 construct: purchased Invitrogen, Carlsbad, Calif
Method: as §1

EPHB1 = target: T10, EPHB1 (Homo sapiens, UniProt P54762); test: Kinase Selectivity Assay; conditions: read-out: Percent Inhibition at 1 μM; further: ATP at apparent Km or 100 µM
T10 construct: purchased Invitrogen, Carlsbad, Calif
T10 sequence (P54762 18-984): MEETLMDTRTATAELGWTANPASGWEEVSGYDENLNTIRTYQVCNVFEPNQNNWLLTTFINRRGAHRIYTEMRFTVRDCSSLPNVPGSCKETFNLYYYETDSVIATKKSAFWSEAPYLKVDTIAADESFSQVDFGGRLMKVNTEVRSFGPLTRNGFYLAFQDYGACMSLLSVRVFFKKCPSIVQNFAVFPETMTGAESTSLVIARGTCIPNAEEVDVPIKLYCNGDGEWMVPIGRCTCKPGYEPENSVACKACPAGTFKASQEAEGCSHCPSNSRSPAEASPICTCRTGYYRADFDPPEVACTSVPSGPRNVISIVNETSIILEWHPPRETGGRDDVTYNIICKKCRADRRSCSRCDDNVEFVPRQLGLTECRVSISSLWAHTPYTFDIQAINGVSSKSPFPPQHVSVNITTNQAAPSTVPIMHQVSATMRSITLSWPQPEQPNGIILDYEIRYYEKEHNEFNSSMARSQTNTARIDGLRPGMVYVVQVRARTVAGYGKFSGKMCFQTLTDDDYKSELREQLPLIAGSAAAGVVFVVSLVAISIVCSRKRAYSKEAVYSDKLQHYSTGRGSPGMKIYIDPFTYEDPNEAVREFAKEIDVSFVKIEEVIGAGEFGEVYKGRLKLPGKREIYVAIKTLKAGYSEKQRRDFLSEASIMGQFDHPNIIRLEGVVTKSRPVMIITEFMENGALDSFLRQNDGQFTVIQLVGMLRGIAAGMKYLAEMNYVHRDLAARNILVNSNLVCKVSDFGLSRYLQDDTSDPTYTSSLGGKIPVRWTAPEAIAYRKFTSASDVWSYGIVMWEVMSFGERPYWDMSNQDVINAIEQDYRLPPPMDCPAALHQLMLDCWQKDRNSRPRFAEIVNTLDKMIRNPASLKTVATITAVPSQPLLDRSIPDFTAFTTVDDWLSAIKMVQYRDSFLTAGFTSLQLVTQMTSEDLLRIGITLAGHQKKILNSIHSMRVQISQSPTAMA
Method: as §1

FGFR1 = target: T11, FGFR1 (Homo sapiens, UniProt P11362); test: Kinase Selectivity Assay; conditions: read-out: Percent Inhibition at 1 μM; further: ATP at apparent Km or 100 µM
T11 construct: purchased Invitrogen, Carlsbad, Calif
Method: as §1

FGFR2 = target: T12, FGFR2 (Homo sapiens, UniProt P21802); test: Kinase Selectivity Assay; conditions: read-out: Percent Inhibition at 1 μM; further: ATP at apparent Km or 100 µM
T12 construct: full-length enzymes or catalytically active fragments; purchased Invitrogen
Method: as §1

FLT1 (VEGFR1) = target: T13, FLT1 (VEGFR1) (Homo sapiens, UniProt P17948); test: Kinase Selectivity Assay; conditions: read-out: Percent Inhibition at 1 μM; further: ATP at apparent Km or 100 µM
T13 construct: full-length enzymes or catalytically active fragments; purchased Invitrogen
Method: as §1

FYN = target: T14, FYN (Homo sapiens, UniProt P06241); test: Kinase Selectivity Assay; conditions: read-out: Percent Inhibition at 1 μM; further: ATP at apparent Km or 100 µM
T14 construct: full-length enzymes or catalytically active fragments; purchased Invitrogen
T14 sequence (P06241 whole entry, the tested form may be a part): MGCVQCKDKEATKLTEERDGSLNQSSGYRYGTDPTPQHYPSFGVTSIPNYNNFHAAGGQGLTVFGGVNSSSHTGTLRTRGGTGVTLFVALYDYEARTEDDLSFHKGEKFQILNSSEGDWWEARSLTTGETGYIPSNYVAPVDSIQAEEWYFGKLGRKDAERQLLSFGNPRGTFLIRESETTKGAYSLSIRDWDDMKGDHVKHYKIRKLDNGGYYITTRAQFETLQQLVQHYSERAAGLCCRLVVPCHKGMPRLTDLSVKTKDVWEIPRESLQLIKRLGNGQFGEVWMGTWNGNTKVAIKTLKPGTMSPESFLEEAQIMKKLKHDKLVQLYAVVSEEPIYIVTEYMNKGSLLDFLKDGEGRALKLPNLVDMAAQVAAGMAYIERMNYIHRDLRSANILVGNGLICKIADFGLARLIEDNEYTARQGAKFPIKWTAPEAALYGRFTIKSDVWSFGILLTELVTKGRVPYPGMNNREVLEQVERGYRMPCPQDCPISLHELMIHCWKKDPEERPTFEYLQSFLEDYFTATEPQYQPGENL
Method: as §1

GSK3A (GSK3 alpha) = target: T15, GSK3A (GSK3 alpha) (Homo sapiens, UniProt P49840); test: Kinase Selectivity Assay; conditions: read-out: Percent Inhibition at 1 μM; further: ATP at apparent Km or 100 µM
T15 construct: full-length enzymes or catalytically active fragments; purchased Invitrogen
Method: as §1

GSK3B (GSK3 beta) = target: T16, GSK3B (GSK3 beta) (Homo sapiens, UniProt P49841); test: Kinase Selectivity Assay; conditions: read-out: Percent Inhibition at 1 μM; further: ATP at apparent Km or 100 µM
T16 construct: full-length enzymes or catalytically active fragments; purchased Invitrogen
Method: as §1

JAK2 = target: T17, JAK2 (Homo sapiens, UniProt O60674); test: Kinase Selectivity Assay; conditions: read-out: Percent Inhibition at 1 μM; further: ATP at apparent Km or 100 µM
T17 construct: full-length enzymes or catalytically active fragments; purchased Invitrogen
T17 sequence (O60674 whole entry, the tested form may be a part): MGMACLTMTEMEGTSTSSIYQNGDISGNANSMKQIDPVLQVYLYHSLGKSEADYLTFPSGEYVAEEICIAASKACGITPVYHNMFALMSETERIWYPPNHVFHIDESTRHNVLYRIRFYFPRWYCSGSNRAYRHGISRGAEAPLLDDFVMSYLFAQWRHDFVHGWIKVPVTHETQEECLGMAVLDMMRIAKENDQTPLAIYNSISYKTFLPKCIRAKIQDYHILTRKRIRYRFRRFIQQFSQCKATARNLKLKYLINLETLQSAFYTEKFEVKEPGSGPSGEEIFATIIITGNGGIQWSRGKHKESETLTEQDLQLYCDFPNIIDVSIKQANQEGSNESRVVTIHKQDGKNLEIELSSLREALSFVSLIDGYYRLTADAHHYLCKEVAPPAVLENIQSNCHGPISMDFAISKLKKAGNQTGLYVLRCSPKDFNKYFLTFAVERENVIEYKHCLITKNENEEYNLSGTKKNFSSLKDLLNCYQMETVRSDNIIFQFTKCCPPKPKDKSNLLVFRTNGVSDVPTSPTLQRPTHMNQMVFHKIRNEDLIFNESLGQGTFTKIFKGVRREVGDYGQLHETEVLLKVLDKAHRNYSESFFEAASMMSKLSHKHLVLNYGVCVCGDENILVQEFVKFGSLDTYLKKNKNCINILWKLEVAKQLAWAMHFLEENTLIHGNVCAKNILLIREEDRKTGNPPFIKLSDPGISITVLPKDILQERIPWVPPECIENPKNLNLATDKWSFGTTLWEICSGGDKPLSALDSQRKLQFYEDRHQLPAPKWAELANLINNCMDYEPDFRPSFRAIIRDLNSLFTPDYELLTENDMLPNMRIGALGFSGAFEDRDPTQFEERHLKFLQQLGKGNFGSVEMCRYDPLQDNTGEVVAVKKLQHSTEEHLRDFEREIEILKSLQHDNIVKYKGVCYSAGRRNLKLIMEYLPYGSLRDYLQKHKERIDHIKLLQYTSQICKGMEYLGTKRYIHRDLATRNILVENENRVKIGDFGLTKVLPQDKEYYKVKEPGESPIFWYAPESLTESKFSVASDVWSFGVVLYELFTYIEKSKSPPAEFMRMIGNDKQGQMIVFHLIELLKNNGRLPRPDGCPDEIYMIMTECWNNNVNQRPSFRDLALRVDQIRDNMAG
Method: as §1

KDR (VEGFR2) = target: T18, KDR (VEGFR2) (Homo sapiens, UniProt P35968); test: Kinase Selectivity Assay; conditions: read-out: Percent Inhibition at 1 μM; further: ATP at apparent Km or 100 µM
T18 construct: full-length enzymes or catalytically active fragments; purchased Invitrogen
Method: as §1

KIT = target: T19, KIT (Homo sapiens, UniProt P10721); test: Kinase Selectivity Assay; conditions: read-out: Percent Inhibition at 1 μM; further: ATP at apparent Km or 100 µM
T19 construct: full-length enzymes or catalytically active fragments; purchased Invitrogen
Method: as §1

LCK = target: T20, LCK (Homo sapiens, UniProt P06239); test: Kinase Selectivity Assay; conditions: read-out: Percent Inhibition at 1 μM; further: ATP at apparent Km or 100 µM
T20 construct: full-length enzymes or catalytically active fragments; purchased Invitrogen
Method: as §1

LYN A = target: T21, LYN A (Homo sapiens, UniProt P07948); test: Kinase Selectivity Assay; conditions: read-out: Percent Inhibition at 1 μM; further: ATP at apparent Km or 100 µM
T21 construct: full-length enzymes or catalytically active fragments; purchased Invitrogen
Method: as §1

MAP2K1 (MEK1) = target: T22, MAP2K1 (MEK1) (Homo sapiens, UniProt Q02750); test: Kinase Selectivity Assay; conditions: read-out: Percent Inhibition at 1 μM; further: ATP at apparent Km or 100 µM
T22 construct: full-length enzymes or catalytically active fragments; purchased Invitrogen
Method: as §1

NTRK1 (TRKA) = target: T23, NTRK1 (TRKA) (Homo sapiens, UniProt P04629); test: Kinase Selectivity Assay; conditions: read-out: Percent Inhibition at 1 μM; further: ATP at apparent Km or 100 µM
T23 construct: full-length enzymes or catalytically active fragments; purchased Invitrogen
Method: as §1

PDGFRA (PDGFR alpha) = target: T24, PDGFRA (PDGFR alpha) (Homo sapiens, UniProt P16234); test: Kinase Selectivity Assay; conditions: read-out: Percent Inhibition at 1 μM; further: ATP at apparent Km or 100 µM
T24 construct: full-length enzymes or catalytically active fragments; purchased Invitrogen
Method: as §1

PDGFRA D842V = target: T25, PDGFRA D842V (Homo sapiens, UniProt P16234, D842V); test: Kinase Selectivity Assay; conditions: read-out: Percent Inhibition at 1 μM; further: ATP at apparent Km or 100 µM
T25 construct: full-length enzymes or catalytically active fragments; purchased Invitrogen
Method: as §1

PDGFRA T674I = target: T26, PDGFRA T674I (Homo sapiens, UniProt P16234, T674I); test: Kinase Selectivity Assay; conditions: read-out: Percent Inhibition at 1 μM; further: ATP at apparent Km or 100 µM
T26 construct: full-length enzymes or catalytically active fragments; purchased Invitrogen
Method: as §1

RET = target: T27, RET (Homo sapiens, UniProt P07949); test: Kinase Selectivity Assay; conditions: read-out: Percent Inhibition at 1 μM; further: ATP at apparent Km or 100 µM
T27 construct: full-length enzymes or catalytically active fragments; purchased Invitrogen
Method: as §1

ROS1 = target: T28, ROS1 (Homo sapiens, UniProt P08922); test: Kinase Selectivity Assay; conditions: read-out: Percent Inhibition at 1 μM; further: ATP at apparent Km or 100 µM
T28 construct: full-length enzymes or catalytically active fragments; purchased Invitrogen
Method: as §1

STK6 (Aurora A) = target: T29, STK6 (Aurora A) (Homo sapiens, UniProt O14965); test: Kinase Selectivity Assay; conditions: read-out: Percent Inhibition at 1 μM; further: ATP at apparent Km or 100 µM
T29 construct: full-length enzymes or catalytically active fragments; purchased Invitrogen
T29 sequence (O14965 whole entry, the tested form may be a part): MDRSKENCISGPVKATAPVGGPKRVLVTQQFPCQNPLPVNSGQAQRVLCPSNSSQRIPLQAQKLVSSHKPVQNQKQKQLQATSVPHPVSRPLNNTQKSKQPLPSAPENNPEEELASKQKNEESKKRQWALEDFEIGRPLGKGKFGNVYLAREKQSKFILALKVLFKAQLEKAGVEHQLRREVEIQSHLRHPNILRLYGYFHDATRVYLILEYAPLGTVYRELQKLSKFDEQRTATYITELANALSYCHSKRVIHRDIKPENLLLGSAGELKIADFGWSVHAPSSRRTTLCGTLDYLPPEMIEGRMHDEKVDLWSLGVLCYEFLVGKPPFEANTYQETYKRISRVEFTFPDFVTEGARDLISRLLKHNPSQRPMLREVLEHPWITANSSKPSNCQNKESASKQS
Method: as §1

TBK1 = target: T30, TBK1 (Homo sapiens, UniProt Q9UHD2); test: Kinase Selectivity Assay; conditions: read-out: Percent Inhibition at 1 μM; further: ATP at apparent Km or 100 µM
T30 construct: purchased Invitrogen, Carlsbad, Calif
T30 sequence (Q9UHD2 whole entry): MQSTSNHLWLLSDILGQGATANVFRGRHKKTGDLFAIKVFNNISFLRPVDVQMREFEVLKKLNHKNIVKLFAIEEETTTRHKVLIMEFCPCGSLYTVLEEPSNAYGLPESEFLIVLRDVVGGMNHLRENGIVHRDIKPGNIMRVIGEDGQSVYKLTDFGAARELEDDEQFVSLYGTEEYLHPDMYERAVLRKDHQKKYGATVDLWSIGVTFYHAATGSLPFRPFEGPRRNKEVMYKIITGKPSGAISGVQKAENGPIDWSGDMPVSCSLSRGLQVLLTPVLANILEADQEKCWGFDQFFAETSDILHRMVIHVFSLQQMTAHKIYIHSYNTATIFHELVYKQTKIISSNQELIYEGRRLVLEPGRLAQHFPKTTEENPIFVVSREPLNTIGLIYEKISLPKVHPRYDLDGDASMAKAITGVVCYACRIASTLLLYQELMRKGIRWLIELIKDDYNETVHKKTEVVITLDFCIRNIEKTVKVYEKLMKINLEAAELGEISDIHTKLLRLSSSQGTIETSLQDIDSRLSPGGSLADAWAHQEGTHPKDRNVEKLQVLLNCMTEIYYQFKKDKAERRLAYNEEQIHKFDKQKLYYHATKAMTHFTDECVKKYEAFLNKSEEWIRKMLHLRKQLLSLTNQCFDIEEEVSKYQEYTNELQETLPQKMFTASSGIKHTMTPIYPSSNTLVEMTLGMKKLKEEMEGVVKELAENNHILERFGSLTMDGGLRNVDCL
Method: as §1

YES1 = target: T31, YES1 (Homo sapiens, UniProt P07947); test: Kinase Selectivity Assay; conditions: read-out: Percent Inhibition at 1 μM; further: ATP at apparent Km or 100 µM
T31 construct: purchased Invitrogen, Carlsbad, Calif
T31 sequence (P07947 whole entry): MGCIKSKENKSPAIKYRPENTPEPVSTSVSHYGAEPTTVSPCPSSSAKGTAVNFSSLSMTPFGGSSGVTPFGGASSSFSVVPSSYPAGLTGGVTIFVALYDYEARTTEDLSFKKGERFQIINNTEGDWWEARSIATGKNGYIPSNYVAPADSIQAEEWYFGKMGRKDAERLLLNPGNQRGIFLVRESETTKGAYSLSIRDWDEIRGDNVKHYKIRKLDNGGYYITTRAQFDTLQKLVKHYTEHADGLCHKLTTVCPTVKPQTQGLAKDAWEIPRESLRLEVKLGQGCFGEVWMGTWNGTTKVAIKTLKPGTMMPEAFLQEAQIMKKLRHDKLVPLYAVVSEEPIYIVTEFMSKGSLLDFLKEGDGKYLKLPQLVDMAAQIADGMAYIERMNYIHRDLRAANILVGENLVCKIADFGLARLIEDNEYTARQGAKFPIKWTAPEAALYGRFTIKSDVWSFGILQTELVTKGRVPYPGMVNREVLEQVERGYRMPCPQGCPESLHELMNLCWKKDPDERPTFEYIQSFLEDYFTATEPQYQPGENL
Method: as §1

[1] = target: T32, recombinant human Flt3, residues 564-end (Homo sapiens, UniProt P36888); test: Flt3 Kinase Inhibition Assay; conditions: read-out: inhibition of Flt3 at a concentration of 1 μM; 1 μM compound; 33P-ATP filter assay
T32 construct: recombinant human Flt3, residues 564-end; GST (N); purchased Upstate USA Inc, Charlottesville, Va
Method: Compounds were assayed for Flt3 kinase inhibitory activity using N-terminal GST-tagged recombinant human Flt3, residues 564-end (Upstate USA Inc, 706 Forest Street, Charlottesville, Va.). Serial dilutions of compound were assayed in a final reaction volume of 25 μL by incubating a solution of the above Flt3 kinase (5-10 mU), 8 mM MOPS (3-(N-morpholino) propanesulfonic acid) pH 7.0, 0.2 mM EDTA (ethylenediamine tetracetic acid), 50 μM amino acid sequence [sequence] (SEQ ID NO: 1)(Upstate USA Inc, 706 Forest Street, Charlottesville, Va.), and 10 mM magnesium acetate and [γ-^33P-ATP] (specific activity of about 500 cpm/pmol, concentration as required). The reaction was initiated by the addition of the magnesium acetate and [γ-^33P-ATP] mixture. After incubation for 40 minutes at room temperature, the reaction was stopped bythe addition of 5 μL of a 3% phosphoric acid solution. A 10 μL aliquote of the reaction was then spotted onto a P30 filtermat (PerkinElmer, Wellesley, Mass.) and washed three times for five minutes in 75 mM phosphoric acid and once in methanol prior to drying and scintillation counting. Inhibition of Flt3 activity was determined by comparison to assays that contained no inhibitor.

Row | SMILES | inhibition at 100 µM (Aurora B kinase) | inhibition at 1 µM (ABL2 (Arg)) | inhibition at 1 µM (AKT1 (PKB alpha)) | inhibition at 1 µM (BLK) | inhibition at 1 µM (BMX) | inhibition at 1 µM (BTK) | inhibition at 1 µM (CDK2/cyclin A) | inhibition at 1 µM (CSF1R (FMS)) | inhibition at 1 µM (EPHA1) | inhibition at 1 µM (EPHB1) | inhibition at 1 µM (FGFR2) | inhibition at 1 µM (FLT1 (VEGFR1)) | inhibition at 1 µM (FYN) | inhibition at 1 µM (GSK3A (GSK3 alpha)) | inhibition at 1 µM (GSK3B (GSK3 beta)) | inhibition at 1 µM (JAK2) | inhibition at 1 µM (KDR (VEGFR2)) | inhibition at 1 µM (KIT) | inhibition at 1 µM (LYN A) | inhibition at 1 µM (MAP2K1 (MEK1)) | further results
1 | Cc1cc(Nc2nc(/C=C/c3ccccc3)nc(N3CCN(C)CC3)c2N)[nH]n1 [Example 10, 6-(4-methylpiperazin-1-yl)-N-(3-methyl-1H-pyrazol-5-yl)-2-[(E)-2-phenylvinyl]pyrimidin-4,5-diamine] | 97% | 32% | 9% | 67% | 19% | 28% | 8% | 80% | 52% | 32% | 53% | 25% | 50% | 38% | 26% | 61% | 88% | 39% | 63% | 23% | inhibition at 1 µM (FGFR1): 46%; inhibition at 1 µM (LCK): 81%; inhibition at 1 µM (NTRK1 (TRKA)): 92%; inhibition at 1 µM (PDGFRA (PDGFR alpha)): 58%; inhibition at 1 µM (PDGFRA D842V): 9%; inhibition at 1 µM (PDGFRA T674I): 65%; inhibition at 1 µM (RET): 95%; inhibition at 1 µM (ROS1): 54%; inhibition at 1 µM (STK6 (Aurora A)): 83%; inhibition at 1 µM (TBK1): 73%; inhibition at 1 µM (YES1): 80%
2 | Cc1cc(Nc2cc(N3CCN(C)CC3)nc(/C=C/c3ccccc3)n2)n[nH]1 [Example 31, 6-(4-methylpiperazin-1-yl)-N-(3-methyl-1H-pyrazol-5-yl)-2-[(E)-2-phenylvinyl]pyrimidin-4-amine] | 100% | 74% | 5% | 90% | 61% | 63% | 8% | 97% | 77% | 61% | 86% | 53% | 89% | 36% | 28% | 91% | 96% | 75% | 84% | 3% | inhibition at 1 µM [1]: ~96%; inhibition at 1 µM (NTRK1 (TRKA)): 96%; inhibition at 1 µM (PDGFRA (PDGFR alpha)): 83%; inhibition at 1 µM (PDGFRA D842V): 24%; inhibition at 1 µM (PDGFRA T674I): 88%; inhibition at 1 µM (RET): 98%; inhibition at 1 µM (ROS1): 65%; inhibition at 1 µM (STK6 (Aurora A)): 96%; inhibition at 1 µM (TBK1): 80%; inhibition at 1 µM (YES1): 88%
